The values that follow come from patent US20180099917A1, “REVERSIBLY REDUCIBLE MATERIALS AND USE THEREOF” (University of Kentucky Research Foundation, priority 2016, published 2018).

Each structure is given as a SMILES string. Converted amounts (≈) assume the structure as drawn. Like-named read-outs stand apart in the source and are kept apart here.

Data set [1] can be described thus: Reduction potentials versus ferrocene (electrochemistry in acetonitrile). It counts as physicochemical. To be noted: for First Reduction / Second Reduction: reduction potential versus ferrocene. The source says:
The reversibly reducible material according to one or more of the embodiments disclosed herein is soluble in at least one solvent for redox flow batteries. Accordingly, also provided herein is a negolyte for use in redox-flow batteries, the negolyte including the reversibly reducible material and a redox flow battery solvent. Such solvents include, but are not limited to, acetonitrile, propylene glycol, propylene carbonate, dimethyl acetamide, and dimethyl formamide. […] In some embodiments, the negolyte also includes an electrolyte. Suitable electrolytes include, but are not limited to, tetraalkylammonium hexafluorophosphate, perchlorate, tetrafluoroborate, triflate, perfluorobutylsulfonate, lithium salts thereof (e.g., lithium hexafluorophosphate or perchlorate), other organic-soluble materials, any other suitable electrolyte, or a combination thereof. Other suitable electrolytes include, but are not limited to, sulfuric acid and/or potassium hydroxide. An example of the electrochemical trace, with internal ferrocene standard in acetonitrile using tetrabutylammonium hexafluorophosphate electrolyte, is shown in FIG. 1. Although discussed above with regard to non-aqueous redox flow batteries, as will be appreciated by those skilled in the art the instant disclosure is not so limited and may include aqueous redox flow batteries as well.
(§1) Following the formation of reversibly reducible materials as discussed above, various compounds were tested for structure, solubility, and reduction potentials. The results are provided in Table 2 below, with solubility shown in acetonitrile at 23° C. and reduction potentials shown versus ferrocene.

Data set [2] is described as follows: Solubility in acetonitrile. It counts as physicochemical. As to the method:
In some embodiments, modifying the Z group in formula I above adjusts the solubility of the resulting compound. For example, in one embodiment, compound number 1 has a solubility of 0.1 M in acetonitrile (electrolyte solution), while compound number 2 has a solubility of 0.3 M in acetonitrile.
as §1

The mark [3] stands for this setting: acetonitrile (electrolyte solution), organic solvent or mixture, read-out: solubility in acetonitrile.
[4] abbreviates: organic solvent or mixture, in acetonitrile at 23° C., read-out: Solubility.

In general, solubility refers to the dissolved amount per volume that the medium holds. Consider `COCCOCCOCCNC1=CC(=O)c2ccccc2C1=O`, for which, in data set [1], the “First Reduction” value was −1.295 V and the “Second Reduction” value was −1.784 V. In data set [2] (in acetonitrile at 23° C.), the solubility entry is listed as “Miscible”.

As to `COCCN(CCOC)C1=CC(=O)c2ccccc2C1=O`, in data set [1], the “First Reduction” value was −1.295 V and the Second Reduction was -1.67 V. Moreover, the solubility entry in data set [2] (in acetonitrile at 23° C.) is “Miscible”.

In the case of `CC(C)CNC1=CC(=O)c2ccccc2C1=O` [Compound 1], in data set [1], the “First Reduction” value is given as −1.266 V and the “Second Reduction” value is on record as −1.841 V. Besides, the solubility in data set [2] (setting [3]) stood at 100 mM (≈ 22.9 mg/mL). For the same compound, the solubility in data set [2] (setting [4]) was 100 mM (≈ 22.9 mg/mL).

For `COCCNC1=CC(=O)c2ccccc2C1=O` [Compound 2], in data set [1], the “First Reduction” value is −1.316 V and the “Second Reduction” value was −1.798 V. The solubility in data set [2] (setting [3]) was found to be 300 mM (≈ 69.4 mg/mL). Also, in data set [2] (setting [4]), the solubility was determined as 300 mM (≈ 69.4 mg/mL).

As for `COCCNC1=C(Cl)C(=O)c2ccccc2C1=O` [Compound 10], the “solubility compared to compound 2” value in data set [2] (Cl at the R5 position versus identical compound without Cl) is “increases the solubility”.

Turning to `CCN(CC)C1=CC(=O)c2ccccc2C1=O` [Compound 11], the “First Reduction” value in data set [1] is −1.362 V. For the same compound, in data set [1], the “Second Reduction” value was −1.686 V. In data set [1] (second group on the N atom), the electrochemistry properties entry was “excellent electrochemistry properties”. Also, the solubility in data set [2] (setting [3]) and in data set [2] (setting [4]) was 700 mM (≈ 160 mg/mL) throughout.
